US20060089395A1, “Nf-kb activation inhibitors” (priority 2002, published 2006)

System: NF-κ B
Test: Inhibitory activity of NF-κ B activation, luciferase reporter assay in HepG2 under TNF-α stimulation
Assay type: cell-based, human
Conditions: HepG2, TNF-α (40 ng/ml), 4 hours; for inhibition at 1 µg/mL / inhibition at 10 µg/mL: Homo sapiens; for Inhibitory Ratio of NF-κ B Activation(%) Drug Concentration 1 μg/mL / inhibition at 1 µg/mL: 1 μg/mL; for inhibition at 1 µg/mL: read-out: Inhibitory Ratio of NF-κ B Activation(%) Drug Concentration 1 μg/mL; for Inhibitory Ratio of NF-κ B Activation(%) Drug Concentration 10 μg/mL / inhibition at 10 µg/mL: 10 μg/mL; for inhibition at 10 µg/mL: read-out: Inhibitory Ratio of NF-κ B Activation(%) Drug Concentration 10 μg/mL
Method: Using a transfection reagent(Effectene; QIAGEN), the human hepatoma cell strain HepG2 was transfected with a plasmid(pNF κ B-Luc Reporter Plasmid; […]) which is integrated with an oligonucleotide having five tandem copies of NF-κ B binding sequences([…]) on a upstream region of firefly luciferase gene(Luc) according to the QIAGEN's protocol, and the cells were incubated for 6 to 24 hours. After the addition of TNF-α (40 ng/ml) in the presence or absence of a test compound, the cells were incubated for 4 hours, and intracellular luciferase activity was measured by using PicaGene LT (TOYO INK MFG Co., Ltd.) and a chemical luminescence measurement apparatus ([…]luor Plus; TECAN). The inhibitory ratio was measured as a ratio relative to the value of a luciferase activity in the absence of the test compound.

Inhibitory Ratio of NF-κ B Activation(%) Drug Concentration 10 μg/mL | Compound | Inhibitory Ratio of NF-κ B Activation(%) Drug Concentration 1 μg/mL | inhibition at 1 µg/mL | inhibition at 10 µg/mL
90.2% | CCN(CC)S(=O)(=O)c1ccc(OC)c(NC(=O)c2cc(Cl)ccc2O)c1 [Compound No. 155] | 11.2% | – | –
87.6% | CCc1nc(NC(=O)c2cc(Br)ccc2O)sc1-c1ccccc1 [Compound No. 196] | 28.8% | – | –
67.0% | O=C(Nc1nc(-c2ccccc2)c(-c2ccccc2)s1)c1cc(Br)ccc1O [Compound No. 211] | – | – | –
99.2% | CC(=NOCc1ccccc1)c1ccc(O)c(C(=O)Nc2cc(C(F)(F)F)cc(C(F)(F)F)c2)c1 [Compound No. 15] | 94.5% | – | –
– | O=C(Nc1nc(-c2ccc(C(F)(F)F)cc2)cs1)c1cc(Cl)ccc1O [Compound No. 261, 5-Chloro-2-hydroxy-N-{4-[4-(trifluoromethyl)phenyl]thiazol-2-yl}benzamide] | – | > 99.9% | –
– | N#CC(C#N)=Cc1ccc(O)c(C(=O)Nc2cc(C(F)(F)F)cc(C(F)(F)F)c2)c1 [Compound No. 16, N-[3,5-Bis(trifluoromethyl)phenyl]-5-(2,2-dicyanoethen-1-yl)-2-hydroxybenzamide] | – | 42.7% | 99.4%
– | CC(C)c1cccc(C(=O)Nc2cc(C(F)(F)F)cc(C(F)(F)F)c2)c1O [Compound No. 256, N-[3,5-bis(trifluoromethyl)phenyl]-2-hydroxy-3-isopropylbenzamide] | – | 92.1% | –
– | O=C(Nc1cc(C(F)(F)F)cc(C(F)(F)F)c1)c1cc(I)ccc1O [Compound No. 7, N-[3,5-bis(trifluoromethyl)phenyl]-2-hydroxy-5-iodobenzamide] | – | 86.6% | 85.4%
– | COC(=O)c1cc(NC(=O)c2cc(Cl)ccc2O)cc(C(F)(F)F)c1 [Compound No. 108, 5-chloro-2-hydroxy-N-[3-methoxycarbonyl-5-(trifluoromethyl)phenyl]benzamide] | – | 41.5% | 88.4%
70.6% | O=C(Nc1cc(Cl)cc(Cl)c1)c1cc([N+](=O)[O-])ccc1O [Compound No. 130] | – | – | –
– | CC(C)(C)c1nc(NC(=O)c2cc(Cl)ccc2O)sc1C#N [Compound No. 188, 5-Chloro-N-{5-cyano-4-[(1,1-dimethyl)ethyl]thiazol-2-yl)-2-hydroxybenzamide] | – | 92.6% | 92.4%
95.0% | O=C(Nc1nc(Cc2ccccc2)c(-c2ccccc2)s1)c1cc(Br)ccc1O [Compound No. 212] | 79.7% | – | –
85.4% | CCOC(=O)c1c(NC(=O)c2cc(Cl)ccc2O)sc2c1CCCC2 [Compound No. 232] | 88.2% | – | –
– | CC(C)(C)c1nc(NC(=O)c2cc(Br)ccc2O)sc1N1CCOCC1 [Compound No. 205, 5-Bromo-N-{4-[(1,1-dimethyl)ethyl]-5-morpholinothiazol-2-yl}-2-hydroxybenzamide] | – | 87.8% | 96.8%
96.4% | Cc1ccc(C(=O)C(C)(C)C)cc1NC(=O)c1cc(Cl)ccc1O [compound 166] | 94.1% | – | –
– | CCCCc1nc(NC(=O)c2cc(Br)ccc2O)sc1-c1ccccc1 [Compound No. 198, 5-Bromo-N-(4-butyl-5-phenylthiazol-2-yl)-2-hydroxybenzamide] | – | 46.1% | 88.7%
78.8% | O=C(Nc1nc(-c2ccccc2)cs1)c1cc(Br)ccc1O [Compound No. 208] | – | – | –
– | CC(C)(C)c1nc(NC(=O)c2cc(Br)ccc2O)sc1Br [Compound No. 186, 5-Bromo-N-{5-bromo-4-[(1,1-dimethyl)ethyl]thiazol-2-yl}-2-hydroxybenzamide] | – | 96.5% | 98.7%
69.7% | Cc1cnc(NC(=O)c2cc(Br)ccc2O)s1 [Compound No. 190] | – | – | –
96.4% | Cc1ccc(-c2ccccc2)cc1NC(=O)c1cc(Cl)ccc1O [Compound No. 172] | 93.7% | – | –
96.3% | N#Cc1ccc(Oc2ccc(C(F)(F)F)cc2NC(=O)c2cc(Cl)ccc2O)cc1 [Compound No. 252] | 93.9% | – | –
– | CCc1sc(NC(=O)c2cc(Br)ccc2O)nc1C(C)(C)C [Compound No. 195, 5-Bromo-N-{4-[(1,1-dimethyl)ethyl]-5-ethylthiazol-2-yl}-2-hydroxybenzamide] | – | 90.5% | 98.1%
93.8% | CC(C)(C)c1nc(NC(=O)c2cc(Br)ccc2O)sc1C#N [Compound No. 189] | 20.0% | – | –
99.4% | CCC(C)(C)c1ccc(O)c(NC(=O)c2cc(Cl)ccc2O)c1 [Compound No. 177] | 87.8% | – | –
– | CC(=O)c1ccc(O)c(C(=O)Nc2cc(C(F)(F)F)cc(C(F)(F)F)c2)c1 [Compound No. 12, 5-acetyl-N-[3,5-bis(trifluoromethyl)phenyl]-2-hydroxybenzamide] | – | 86.3% | 99.2%
85.8% | CCOC(=O)c1sc(NC(=O)c2cc(-c3ccc(F)cc3)ccc2O)nc1-c1ccccc1 [Compound No. 226] | 45.0% | – | –
94.2% | CCOC(=O)c1sc(NC(=O)c2cc(Cl)ccc2O)nc1-c1ccccc1 [Compound No. 218] | 80.7% | – | –
72.1% | O=C(O)Cc1sc(NC(=O)c2cc(Br)ccc2O)nc1-c1ccccc1 [Compound No. 210] | – | – | –

Compound | Inhibitory Ratio of NF-κ B Activation(%) Drug Concentration 10 μg/mL | Inhibitory Ratio of NF-κ B Activation(%) Drug Concentration 1 μg/mL | inhibition at 1 µg/mL | inhibition at 10 µg/mL
CON=C(C)c1ccc(O)c(C(=O)Nc2cc(C(F)(F)F)cc(C(F)(F)F)c2)c1 [Compound No. 14] | 98.3% | 94.7% | – | –
O=C(Nc1cc(C(F)(F)F)cc(C(F)(F)F)c1)c1cc2ccccc2cc1O [Compound No. 72] | 95.0% | 94.6% | – | –
COc1cccc(C(=O)Nc2cc(C(F)(F)F)cc(C(F)(F)F)c2)c1O [Compound No. 59] | 94.7% | 41.9% | – | –
O=C(Nc1cc(Br)cc(C(F)(F)F)c1)c1cc(Cl)ccc1O [Compound No. 104] | 99.2% | 97.2% | – | –
O=C(Nc1cc(C(F)(F)F)ccc1Cl)c1cc(Cl)cnc1O [Compound No. 119] | 86.9% | 85.4% | – | –
Cc1ccc(C(C)C)cc1NC(=O)c1cc(Cl)ccc1O [Compound No. 151] | 98.2% | 85.8% | – | –
O=C(Nc1cc(C(F)(F)F)ccc1N1CCC(C(F)(F)F)CC1)c1cc(Cl)ccc1O [Compound No. 112] | 95.7% | 96.5% | – | –
CC(C)(C)c1cc(NC(=O)c2cc(Cl)cnc2O)cc(C(C)(C)C)c1 [Compound No. 184] | 63.8% | 53.6% | – | –
CC(C)(C)c1cc(C(=O)Nc2cc(C(F)(F)F)cc(C(F)(F)F)c2)c(O)c(C(C)(C)C)c1 [Compound No. 62] | 86.9% | 37.0% | – | –
COc1ccc(-n2cccc2)c(NC(=O)c2cc(Cl)ccc2O)c1 [Compound No. 167] | 98.7% | 76.4% | – | –
COc1ccc(O)c(C(=O)Nc2cc(C(F)(F)F)ccc2Cl)c1 [Compound No. 101] | 82.0% | 17.7% | – | –
COc1cc(NC(=O)c2cc(Cl)ccc2O)cc(C(F)(F)F)c1 [Compound No. 105] | 97.5% | 94.6% | – | –
O=C(Nc1cc(C(F)(F)F)cc(C(F)(F)F)c1)c1c(O)cccc1O [Compound No. 52] | 97.3% | 96.4% | – | –
O=C(Nc1cc(C(F)(F)F)ccc1Oc1ccc2ccccc2c1)c1cc(Cl)ccc1O [Compound No. 110] | 98.7% | 96.5% | – | –
CSc1ccc(C(F)(F)F)cc1NC(=O)c1cc(Cl)ccc1O [Compound No. 96] | 99.1% | 94.6% | – | –
